The source of these data is patent US20250195513A1, “DEGRADATION OF IRAK4 BY CONJUGATION OF IRAK4 INHIBITORS WITH E3 LIGASE LIGAND AND METHODS OF USE” (BeiGene, Ltd., priority 2022, published 2025).

Where two headings read alike, the source gives them in different places.

As a reminder, the Dmax is the largest share of the target that was removed. The term DC50 denotes the midpoint of the concentration-degradation curve.

The target of this test is T1, IRAK4 (Homo sapiens, UniProt Q9NWZ3).
T1 construct: endogenous in cells; host or cells: Karpas299
T1 sequence (Q9NWZ3 1-460): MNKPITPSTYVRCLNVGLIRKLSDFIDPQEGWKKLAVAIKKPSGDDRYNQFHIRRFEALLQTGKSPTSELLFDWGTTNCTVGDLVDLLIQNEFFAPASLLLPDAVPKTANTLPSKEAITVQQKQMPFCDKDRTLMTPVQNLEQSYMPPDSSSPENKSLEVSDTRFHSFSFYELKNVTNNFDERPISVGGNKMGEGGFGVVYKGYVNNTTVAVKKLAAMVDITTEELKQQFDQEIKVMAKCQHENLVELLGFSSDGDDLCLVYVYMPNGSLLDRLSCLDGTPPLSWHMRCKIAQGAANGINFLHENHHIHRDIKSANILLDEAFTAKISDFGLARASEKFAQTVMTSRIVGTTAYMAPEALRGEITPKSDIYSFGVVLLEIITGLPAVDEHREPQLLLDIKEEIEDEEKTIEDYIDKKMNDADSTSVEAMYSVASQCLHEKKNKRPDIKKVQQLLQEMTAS
Nature of the test: IRAK4 Degradation Assay (Karpas299, HTRF/TR-FRET). It counts as cell-based. The gist of the method: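 Karpas299 cells at 0.2 million per well were exposed to serially diluted compounds for 24 h or 5 h, then lysed. IRAK4 remaining in lysates was quantified by HTRF (665/620 nm) after overnight antibody incubation at room temperature. Percent degradation was fitted to a four-parameter curve to give IC50 (DC50).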

The mark [1] stands for this setting: Karpas-299 cells, 24 h treatment, maximum percentage of degradation, read-out: IRAK4 in Karpas-299 (24 h) Dmax (%).
Where [2] appears, read: Karpas-299 cells, 24 h treatment, read-out: IRAK4 in Karpas-299 (24 h) DC50.
Where [3] appears, read: Karpas-299 cells, 5 h treatment, maximum percentage of degradation, read-out: IRAK4 in Karpas-299 (5 h) Dmax (%).
Where [4] appears, read: Karpas-299 cells, 5 h treatment, read-out: IRAK4 in Karpas-299 (5 h) DC50.

As to `O=C1CCN(c2ccc(N3CC[C@@H](C(=O)N4CCN([C@H]5CC[C@H](n6cc(NC(=O)c7coc(-c8ccnc(NCC9CC9)c8)n7)c(C(F)F)n6)CC5)CC4)C3)cc2)C(=O)N1` [Example 23, 2-(2-((cyclopropylmethyl)amino)pyridin-4-yl)-N-(3-(difluoromethyl)-1-((1R,4r)-4-(4-((R)-1-(4-(2,4-dioxotetrahydropyrimidin-1(2H)-yl)phenyl)pyrrolidine-3-carbonyl)piperazin-1-yl)cyclohexyl)-1H-pyrazol-4-yl)oxazole-4-carboxamide], the Dmax under setting [1] worked out at 95%. Also, the DC50 under setting [2] stood at 6 nM.

For `CC(C)(O)c1cc2nn([C@H]3CC[C@H](N4CCN(C(=O)/C=C/C56CC7CC(CC(C7)C5)C6)CC4)CC3)cc2cc1NC(=O)c1ccc2cc(C#N)cnn12` [Example 441, N-(2-((1r,4r)-4-(4-((E)-3-(adamantan-1-yl)acryloyl)piperazin-1-yl)cyclohexyl)-6-(2-hydroxypropan-2-yl)-2H-indazol-5-yl)-3-cyanopyrrolo[1,2-b]pyridazine-7-carboxamide], the Dmax under setting [1] amounted to 4%. The half-maximal degradation concentration (DC50) under setting [2] is over 1000 nM.

Turning to `COc1cc2nn(C3CCN(C(=O)[C@H]4CC[C@H](Oc5ccc(C6CCC(=O)NC6=O)cc5)CC4)CC3)cc2cc1NC(=O)c1cccc(C(F)(F)F)n1` (stereo partly shown) [Example 35, N-(2-(1-((1r,4r)-4-(4-(2,6-dioxopiperidin-3-yl)phenoxy)cyclohexane-1-carbonyl)piperidin-4-yl)-6-methoxy-2H-indazol-5-yl)-6-(trifluoromethyl)picolinamide], the DC50 by setting is: (Degradation (Karpas-299), comparison table, Linker Type A, read-out: Compound (Linker Type A) DC50) over 10000 nM; under setting [2], over 10000 nM. Besides, the Dmax was determined as 10% (Degradation (Karpas-299), comparison table, Linker Type A, read-out: Compound (Linker Type A) Dmax (%)) and 10% under setting [1].

As for `CC(C)(O)c1cc2nn([C@H]3CC[C@H](N4CCN(C(=O)C5CN(c6ccc(N7CCC(=O)NC7=O)cc6)C5)CC4)CC3)cc2cc1NC(=O)c1cccc(C(F)(F)F)n1` [Example 40, N-(2-((1r,4r)-4-(4-(1-(4-(2,4-dioxotetrahydropyrimidin-1(2H)-yl)phenyl)azetidine-3-carbonyl)piperazin-1-yl)cyclohexyl)-6-(2-hydroxypropan-2-yl)-2H-indazol-5-yl)-6-(trifluoromethyl)picolinamide], the Dmax runs as follows: under setting [3], 89%; under setting [1], 99%. Further, the DC50 runs as follows: under setting [4], 23 nM; under setting [2], 0.9 nM.

`NC(=O)c1nn([C@H]2CC[C@H](N3CCN(C4CC(c5ccc(N[C@@H]6CCC(=O)NC6=O)cc5)C4)CC3)CC2)cc1NC(=O)c1coc(-c2ccnc(NCC(F)(F)F)c2)n1` (stereo partly drawn) [Example 9, N-(3-carbamoyl-1-((1r,4r)-4-(4-(3-(4-(((R)-2,6-dioxopiperidin-3-yl)amino)phenyl)cyclobutyl)piperazin-1-yl)cyclohexyl)-1H-pyrazol-4-yl)-2-(2-((2,2,2-trifluoroethyl)amino)pyridin-4-yl)oxazole-4-carboxamide]: the Dmax under setting [1] was found to be 95%. The DC50 under setting [2] came out at 2.5 nM.

Consider `O=C1CC[C@H](c2c(F)cc(N3CC[C@@H](C(=O)N4CCN([C@H]5CC[C@H](n6cc(NC(=O)c7coc(-c8ccnc(NCC9CC9)c8)n7)c(C(F)F)n6)CC5)CC4)C3)cc2F)C(=O)N1` [Example 26, 2-(2-((cyclopropylmethyl)amino)pyridin-4-yl)-N-(3-(difluoromethyl)-1-((1R,4r)-4-(4-((R)-1-(4-((R)-2,6-dioxopiperidin-3-yl)-3,5-difluorophenyl)pyrrolidine-3-carbonyl)piperazin-1-yl)cyclohexyl)-1H-pyrazol-4-yl)oxazole-4-carboxamide], for which the Dmax under setting [1] is 99%. Under setting [2], the DC50 was found to be 2.2 nM.

In the case of `O=C1CCN(c2ccc(N3CC(C(=O)N4CCN([C@H]5CC[C@H](n6cc(NC(=O)c7coc(-c8ccnc(NCC(F)(F)F)c8)n7)c(C(F)F)n6)CC5)CC4)C3)cc2)C(=O)N1` [Example 13, N-(3-(difluoromethyl)-1-((1r,4r)-4-(4-(1-(4-(2,4-dioxotetrahydropyrimidin-1(2H)-yl)phenyl)azetidine-3-carbonyl)piperazin-1-yl)cyclohexyl)-1H-pyrazol-4-yl)-2-(2-((2,2,2-trifluoroethyl)amino)pyridin-4-yl)oxazole-4-carboxamide], the Dmax under setting [3] is 84% and the Dmax under setting [1] came out at 94%. Besides, the DC50 runs as follows: under setting [4], 7.5 nM; under setting [2], 2.7 nM.

For `Cc1cc(-c2nc(C(=O)Nc3cn(-c4ccc(N5CCN(C(=O)[C@@H]6CCN(c7cc(F)c([C@H]8CCC(=O)NC8=O)c(F)c7)C6)CC5)nc4)nc3C(N)=O)co2)ccn1` [Example 30, N-(3-carbamoyl-1-(6-(4-((R)-1-(4-((R)-2,6-dioxopiperidin-3-yl)-3,5-difluorophenyl)pyrrolidine-3-carbonyl)piperazin-1-yl)pyridin-3-yl)-1H-pyrazol-4-yl)-2-(2-methylpyridin-4-yl)oxazole-4-carboxamide], the Dmax by setting is: under setting [3], 76%; under setting [1], 95%. Further, the DC50 reads like this: under setting [4], 5.3 nM; under setting [2], 3.2 nM.

With `CC(C)(O)c1cc2nc(C3CCN(C4CCN(C(=O)[C@H]5CCN(c6ccc(N7CCC(=O)NC7=O)cc6)C5)CC4)CC3)cn2cc1NC(=O)c1cccc(C(F)(F)F)n1` [Example 128, (S)—N-(2-(1′-(1-(4-(2,4-dioxotetrahydropyrimidin-1(2H)-yl)phenyl)pyrrolidine-3-carbonyl)-[1,4′-bipiperidin]-4-yl)-7-(2-hydroxypropan-2-yl)imidazo[1,2-a]pyridin-6-yl)-6-(trifluoromethyl)picolinamide], the Dmax runs as follows: under setting [3], 90%; under setting [1], 100%. The DC50 runs as follows: under setting [4], 41 nM; under setting [2], 7.2 nM.

`COc1cc2nn([C@H]3CC[C@H](CN4CCN(C(=O)[C@@H]5CCN(c6cc(F)c(N7CCC(=O)NC7=O)c(F)c6)C5)CC4)CC3)cc2cc1NC(=O)c1cccn(C2CC2)c1=O` [Example 171, 1-cyclopropyl-N-(2-((1R,4r)-4-((4-((R)-1-(4-(2,4-dioxotetrahydropyrimidin-1(2H)-yl)-3,5-difluorophenyl)pyrrolidine-3-carbonyl)piperazin-1-yl)methyl)cyclohexyl)-6-methoxy-2H-indazol-5-yl)-2-oxo-1,2-dihydropyridine-3-carboxamide]: the Dmax under setting [1] turned out to be 95%. In addition, the DC50 under setting [2] was 10 nM.

As for `O=C1CCN(c2ccc(N3CC[C@H](C(=O)N4CCN([C@H]5CC[C@H](n6cc(NC(=O)c7coc(-c8ccnc(NCC9CC9)c8)n7)c(C(F)F)n6)CC5)CC4)C3)cc2)C(=O)N1` [Example 22, 2-(2-((cyclopropylmethyl)amino)pyridin-4-yl)-N-(3-(difluoromethyl)-1-((1S,4r)-4-(4-((S)-1-(4-(2,4-dioxotetrahydropyrimidin-1(2H)-yl)phenyl)pyrrolidine-3-carbonyl)piperazin-1-yl)cyclohexyl)-1H-pyrazol-4-yl)oxazole-4-carboxamide], the Dmax under setting [1] was 90%. Moreover, under setting [2], the DC50 was 6.8 nM.

For the compound `N#Cc1cnn2c(C(=O)Nc3cc4cn([C@H]5CC[C@H](N6CCN(C(=O)C7CN(c8cc(F)c([C@H]9CCC(=O)NC9=O)c(F)c8)C7)CC6)CC5)nc4c4c3OC(F)(F)O4)ccc2c1` [Example 384, 3-cyano-N-(2-((1r,4r)-4-(4-(1-(4-((R)-2,6-dioxopiperidin-3-yl)-3,5-difluorophenyl)azetidine-3-carbonyl)piperazin-1-yl)cyclohexyl)-7,7-difluoro-2H-[1,3]dioxolo[4,5-g]indazol-5-yl)pyrrolo[1,2-b]pyridazine-7-carboxamide], the Dmax under setting [1] was found to be 97%. In addition, the DC50 under setting [2] is 2.2 nM.
